pIC50, pKi: −log10 of the molar value. ≈ marks a conversion by molar mass, not a printed value. Read-outs that look alike come from different tables or passages of the source.
Tests used:
[1] = molecular target: T1, HIV-1 protease (Human immunodeficiency virus type 1 group M subtype B, UniProt P04585); test: biochemical; format: biochemical
T1 construct: purified HIV-1 protease
Experimental: 1. Proteolytic activity of purified HIV-1 protease was routinely measured using the chromogenic assay developed by Richards et al. (J. Biol. Chem. 265: 7733 (1990)). Synthetic peptide His-Lys-Ala-Arg-Val-Leu-Phe (pNO2)-Glu-Ala-Nle-Ser-NH2 (American Peptide Company) was used as the substrate.
2. The assay was carried out in 0.5M NaCl, 50 mM MES pH 5.6, 2% DMSO (dimethylsulfoxide) at 37° C. Cleavage of the scissile bond between leucine and paranitro-phenylalanine (Phe(pNO2)) was assayed by spectrophotometric monitoring of the decrease in absorbance at 305 nm. Initial velocity was determined as the rate of decline of absorbance during the first 100 seconds of reaction.
3. […] Between 15-25 concentrations of inhibitor were added and velocity of reaction was measured at each of the concentrations, as described above.
4. Inhibition constants were calculated using the method of Jackson et al. (Adv. in Enzyme Regulation 22: 187 (1984)).

[2] = test system: HIV-1 (MT-2 cells); test: Anti-HIV MTT assay, inhibition of HIV-induced cell killing, MT-2 cells; format: cell-based, HIV-1 isolates IIIB and/or RF; conditions: Human immunodeficiency virus 1, MT2, 144 h, read-out: Viral MT-2
Excerpt: (§1) SRI has an established program for the primary antiviral analysis of compounds in microtiter assays which measure the ability of a selected compound to inhibit HIV-induced cell killing. This assay involves the conversion of the tetrazolium dye MTT to a colored formazan product by mitochondrial enzymes in metabolically active cells. This assay system is presently used at SRI to screen over 30,000 compounds per year. Briefly, the assay involves the infection of CEM or MT2 cells in round bottom 96-well plates. The compound of interest is added just prior to infection. Following 6 days of incubation at 37° C. the plates are stained with MTT. The results of the assay are quantitated spectrophotometrically on a Molecular Devices Vmax plate reader. The data is analyzed by linear regression utilizing an in-house software program to calculate antiviral activity. (IC25, IC50, IC95) and toxicity (TC25, TC50, TC95) as well as other values.
(§2) Primary antiviral assays are routinely performed in CEM or MT-2 cells.
(§3) Drugs will be solubilized in the appropriate vehicle such as distilled water or DMSO if necessary. Latex gloves, lab coats and masks are used during all phases of the handling process to prevent exposure to potentially harmful agents. The drug is prepared at the appropriate concentration and stored at -20° C. until used by the screening laboratory. The first dilution of each compound is made in a dilution tube with medium to yield a concentration two-fold that of the highest test concentration. Sterile titer tubes are then used to make serial one half-log dilutions of each compound. Following drug dilution, the diluted compound is added to the appropriate well of a 96-well microtiter plate. Up to 12 dilutions can be assayed conveniently in triplicate on a single plate with all appropriate controls including cell control, virus control, toxicity control, drug color control, medium control and plastic (background) control. When testing includes only six dilutions, two drugs can be assayed on a single microtiter plate. The drugs are added to the plate in a final volume of 100 microliters.
(§4) During the time the drug dilutions are prepared, cells are washed and counted. Viability is monitored by trypan blue dye exclusion and assays are not performed if the viability falls below 90%. Cells are maintained in an exponential growth phase and are split 1:2 on the day prior to assay to assure exponential growth rate.
(§5) For the primary screen, the cell lines utilized are CEM and MT-2. Unless otherwise indicated, the medium used is RPMI 1640 with 10% heat-inactivated fetal calf serum (FBS), glutamine and antibiotics.
(§6) Cells are propagated at 37° C. in an atmosphere of 5% CO2 in air. The virus employed for this work is HIV-1 isolates IIIB and/or RF, which are prepared by an acute infection process.
(§7) Briefly, virus-infected cells are pelleted on a daily basis beginning at three days post-infection until the virus has killed all of the cells in the culture. Reverse transcriptase activity and p24 ELISA are used to identify pools with the greatest amount of virus.
(§8) These 24-hour harvests are pooled, filtered and frozen at -90° C. Prior to use in the assay, the infectious pool of virus is titered on all available cell lines in order to determine the amount of virus required in the antiviral assay.
(§9) In general, pools produced by the acute infection method require the addition of one microliter of infectious virus per well resulting in the screening of drugs at a multiplicity of infection of 0.01. In this manner enough virus is prepared and frozen to complete over one thousand microtiter plates, allowing the testing of up to two thousand compounds from a single stock of infectious virus. The use of a single stock of virus for a long period of testing has very favorable effects on the repeatability of the assay systems.
(§10) Virus infection of the CEM and MT-2 cells for the antiviral assay is carried out in a bulk infection process. […]

[3] = test system: HIV-1 (CEM cells); test: Anti-HIV MTT assay, inhibition of HIV-induced cell killing, CEM cells; format: cell-based, HIV-1 isolates IIIB and/or RF; conditions: Human immunodeficiency virus 1, CCRF-CEM, 144 h, CEM cell line (first position), 6 days, 37° C., read-out: Viral CEM
Excerpt: as §1, §2, §3, §4, §5, §6, §7, §8, §9, §10

[4] = 0.5M NaCl, 50 mM MES pH 5.6, 2% DMSO, 37° C., 200 μM substrate
[5] = MT-2 cells (second position), 6 days, 37° C., MTT

Row | Structure (SMILES) | pIC50 [1, 4] | pKi [1, 4] | IC50 [2, 5] | IC50 [3] | pIC50 [1] | pKi [1] | IC50 [2]
1 | CC(C)(C)N(CCO)C(=O)c1ccccc1CCC(O)Cc1ccccc1C(=O)N(CCO)C(C)(C)c1ccccc1 (centres unmarked) [Example 91] | 6.56 | 6.76 | 5.28 µg/mL (≈ 9.19 µM) | 1.95 µg/mL (≈ 3.39 µM) |  |  | 
2 | CCCC(CC)(CC)N(CCO)C(=O)c1ccccc1CC(O)CCc1ccccc1C(=O)N(CCO)C(C)(C)C (centres unmarked) [Example 92] | 6.74 | 7.06 | 5.06 µg/mL (≈ 8.9 µM) | 2.12 µg/mL (≈ 3.73 µM) |  |  | 
3 | CCC1(N(CCO)C(=O)c2ccccc2CCC(O)Cc2ccccc2C(=O)N(CCO)C2(c3ccccc3)CCCC2)CCCC1 (centres unmarked) [Example 93] | 6.98 | 8.64 | 1.67 µg/mL (≈ 2.61 µM) | 1.35 µg/mL (≈ 2.11 µM) |  |  | 
4 | CCC1(N(CCO)C(=O)c2ccccc2CCC(O)Cc2ccc(C)cc2C(=O)N(CCO)C2(c3ccccc3)CCCC2)CCCC1 (centres unmarked) [Example 94] | 6.85 | 9.26 | 1.47 µg/mL (≈ 2.24 µM) | 0.52 µg/mL (≈ 0.794 µM) |  |  | 
5 | CCC1(N(CCO)C(=O)c2ccccc2CCC(O)Cc2ccccc2C(=O)N(CCO)C(CC)(CC)c2ccccc2)CCCC1 (centres unmarked) [Example 95] | 7.05 | 8.82 | 1.46 µg/mL (≈ 2.27 µM) | 0.6 µg/mL (≈ 0.933 µM) |  |  | 
6 | CCC1(N(CCO)C(=O)c2ccccc2CCC(O)Cc2ccc(C)cc2C(=O)N(CCO)C(C)(C)c2ccc(O)cc2)CCCC1 (centres unmarked) [Example 96] |  |  | 1.18 µg/mL (≈ 1.83 µM) | 0.57 µg/mL (≈ 0.884 µM) | 7.20 | 8.40 | 
7 | CCC1(N(CCO)C(=O)c2ccccc2CCC(O)Cc2ccccc2C(=O)N(CCO)C23CCCCC2CCCC3)CCCC1 (centres unmarked) [Example 97] | 6.65 | 7.42 | > 10 µg/mL | 1.58 µg/mL (≈ 2.5 µM) |  |  | 
8 | CCC1(N(CCO)C(=O)c2ccccc2CCC(O)Cc2ccc(C)cc2C(=O)N(CCO)C(C)(C)c2ccc(OCc3cccnc3)cc2)CCCC1 (centres unmarked) [Example 98] | 6.99 | 8.70 | 1.94 µg/mL (≈ 2.64 µM) | 0.48 µg/mL (≈ 0.652 µM) |  |  | 
9 | CCSc1ccc(CC(O)CCc2ccccc2C(=O)N(CCO)C2(CC)CCCC2)c(C(=O)N(CCO)C(C)(C)c2ccccc2)c1 (centres unmarked) [Example 99] | 6.71 | 7.82 | 5.75 µg/mL (≈ 8.52 µM) | 1.62 µg/mL (≈ 2.4 µM) |  |  | 
10 | CCC1(N(CCO)C(=O)c2ccccc2CCC(O)Cc2ccccc2C(=O)N(CCC(O)CO)C(C)(C)c2ccccc2)CCCC1 (centres unmarked) [Example 100] | 6.96 | 8.15 | 1.94 µg/mL (≈ 2.94 µM) | 0.48 µg/mL (≈ 0.729 µM) |  |  | 
11 | CCC1(N(CCO)C(=O)c2ccccc2CCC(O)Cc2ccc(C)cc2C(=O)N(CCO)C(CC)(CC)c2ccccc2)CCCC1 (centres unmarked) [Example 101] | 6.99 | 8.40 | 1.67 µg/mL (≈ 2.54 µM) | 4.16 µg/mL (≈ 6.33 µM) |  |  | 
12 | CCC1(N(CCO)C(=O)c2ccccc2CCC(O)Cc2ccc(C)cc2C(=O)N(CC2COC(C)(C)OC2)C(C)(C)c2ccccc2)CCCC1 (centres unmarked) [Example 102] | 6.88 | 8.64 | 0.47 µg/mL (≈ 0.659 µM) | 0.42 µg/mL (≈ 0.589 µM) |  |  | 
13 | CCC1(N(CCO)C(=O)c2ccccc2CCC(O)Cc2ccc(C)cc2C(=O)N(CC(CO)CO)C(C)(C)c2ccccc2)CCCC1 (centres unmarked) [Example 103] | 6.97 |  | 1.15 µg/mL (≈ 1.71 µM) | 0.64 µg/mL (≈ 0.951 µM) |  | 8.00 | 
14 | CCC1(N(CCO)C(=O)c2ccccc2CCC(O)Cc2ccc(C)cc2C(=O)N(CCC(O)CO)C(C)(C)c2ccccc2)CCCC1 (centres unmarked) [Example 104] |  |  | 0.55 µg/mL (≈ 0.817 µM) | 0.58 µg/mL (≈ 0.862 µM) | 7.09 | 8.02 | 
15 | CCC1(N(CCO)C(=O)c2ccccc2CCC(O)Cc2ccc(Cl)cc2C(=O)N(CCO)C(C)(C)c2ccccc2)CCCC1 (centres unmarked) [Example 105] | 7.07 | 9.00 | 0.49 µg/mL (≈ 0.755 µM) | 0.47 µg/mL (≈ 0.724 µM) |  |  | 
16 | CCC1(N(CC2COC(C)(C)OC2)C(=O)c2ccccc2CCC(O)Cc2ccc(C)cc2C(=O)N(CC2COC(C)(C)OC2)C(C)(C)c2ccccc2)CCCC1 (centres unmarked) [Example 106] | 7.17 | 8.41 | 1.7 µg/mL (≈ 2.13 µM) | 3.91 µg/mL (≈ 4.91 µM) |  |  | 
17 | CCC1(N(CC(CO)CO)C(=O)c2ccccc2CCC(O)Cc2ccc(C)cc2C(=O)N(CC(CO)CO)C(C)(C)c2ccccc2)CCCC1 (centres unmarked) [Example 107] | 7.04 | 7.49 | 1.34 µg/mL (≈ 1.87 µM) | 1.44 µg/mL (≈ 2.01 µM) |  |  | 
18 | CCC1(N(CCO)C(=O)c2ccccc2CCC(O)Cc2ccc(C)cc2C(=O)N(CCO)C(C)(C)c2ccc(OCCN3CCOCC3)cc2)CCCC1 (centres unmarked) [Example 108] | 6.97 | 8.01 | 0.56 µg/mL (≈ 0.739 µM) | 0.64 µg/mL (≈ 0.844 µM) |  |  | 
19 | CCCC(CC)(CC)N(CCO)C(=O)c1cc(C)ccc1CC(O)CCc1ccccc1C(=O)N(CCO)C1(CC)CCCC1 (centres unmarked) [Example 109] | 7.23 | 7.87 |  | 0.79 µg/mL (≈ 1.27 µM) |  |  | 0.59 µg/mL (≈ 0.947 µM)
20 | CCC1(N(CCOC(C)=O)C(=O)c2ccccc2CCC(O)Cc2ccc(C)cc2C(=O)N(CCOC(C)=O)C(C)(C)c2ccccc2)CCCC1 (centres unmarked) [Example 110] | 7.17 | 8.27 | 1.72 µg/mL (≈ 2.41 µM) | 0.69 µg/mL (≈ 0.968 µM) |  |  | 
21 | CCC1(N(CCO)C(=O)c2ccccc2CCC(O)Cc2ccc(C)cc2C(=O)N(CCO)C(C)(C)c2ccc(OCc3ccc[n+]([O-])c3)cc2)CCCC1 (centres unmarked) [Example 111] | 7.28 | 8.10 | 1.81 µg/mL (≈ 2.41 µM) | 1.03 µg/mL (≈ 1.37 µM) |  |  | 
22 | CCC1(N(CCO)C(=O)c2ccccc2CCC(O)Cc2ccc(C)cc2C(=O)N(CCO)C(C)(C)c2ccc(OCCCN(CCO)CCO)cc2)CCCC1 (centres unmarked) [Example 113] | 6.99 | 8.00 | 1.58 µg/mL (≈ 2 µM) | 1.73 µg/mL (≈ 2.19 µM) |  |  | 
23 | CCC1(N(CCO)C(=O)c2ccccc2CCC(O)Cc2ccc(C)cc2C(=O)N(CCOC(=O)[C@@H](N)C(C)C)C(C)(C)c2ccccc2)CCCC1 (some centres unmarked) [Example 114] | 6.40 | 6.64 | 1.75 µg/mL (≈ 2.4 µM) | 2.11 µg/mL (≈ 2.9 µM) |  |  | 

From US5863950A, “HIV protease inhibitors” (Agouron Pharmaceuticals, Inc., priority 1994, dated 1999)
